In brackets after ≈: the same amount, converted by molar mass.
How the values were obtained:
Format in all cases: functional
[1] = test system: Staphylococcus aureus; assay: Antibacterial activity against methicillin-resistant Staphylococcus aureus 01-433 by broth microdilution method
[2] = test system: Staphylococcus aureus; assay: Antibacterial activity against methicillin-sensitive Staphylococcus aureus 01-431 by broth microdilution method
[3] = test system: Staphylococcus epidermidis; assay: Antibacterial activity against methicillin-sensitive Staphylococcus epidermidis 01-1004 by broth microdilution method
[4] = test system: Streptococcus pyogenes; assay: Antibacterial activity against erythromycin-susceptible Streptococcus pyogenes 01-740 by broth microdilution method
[5] = test system: Staphylococcus aureus; assay: Antibacterial activity against methicillin-resistant Staphylococcus aureus 01-483 by broth microdilution method
[6] = test system: Streptococcus pyogenes; assay: Antibacterial activity against erythromycin-susceptible Streptococcus pyogenes 01-469 by broth microdilution method
[7] = test system: Streptococcus pneumoniae; assay: Antibacterial activity against erythromycin-resistant Streptococcus pneumoniae 03-451 by broth microdilution method
[8] = test system: Staphylococcus aureus; assay: Antibacterial activity against methicillin-sensitive Staphylococcus aureus 01-481 by broth microdilution method
[9] = test system: Staphylococcus epidermidis; assay: Antibacterial activity against methicillin-sensitive Staphylococcus epidermidis 01-1005 by broth microdilution method
[10] = test system: Staphylococcus epidermidis; assay: Antibacterial activity against methicillin-resistant Staphylococcus epidermidis 01-1090 by broth microdilution method
[11] = test system: Streptococcus pneumoniae; assay: Antibacterial activity against erythromycin-resistant Streptococcus pneumoniae 03-458 by broth microdilution method
[12] = test system: Staphylococcus epidermidis; assay: Antibacterial activity against methicillin-sensitive Staphylococcus epidermidis 01-1091 by broth microdilution method
[13] = test system: Staphylococcus epidermidis; assay: Antibacterial activity against methicillin-resistant Staphylococcus epidermidis 01-1059 by broth microdilution method
[14] = test system: Streptococcus pneumoniae; assay: Antibacterial activity against Streptococcus pneumoniae ATCC 49619 by broth microdilution method
[15] = test system: Staphylococcus epidermidis; assay: Antibacterial activity against methicillin-resistant Staphylococcus epidermidis 01-1056 by broth microdilution method
[16] = test system: Staphylococcus aureus; assay: Antibacterial activity against methicillin-sensitive Staphylococcus aureus 01-430 by broth microdilution method
[17] = test system: Streptococcus pneumoniae; assay: Antibacterial activity against erythromycin-resistant Streptococcus pneumoniae 03-436 by broth microdilution method
[18] = test system: Streptococcus pyogenes; assay: Antibacterial activity against erythromycin-susceptible Streptococcus pyogenes 01-804 by broth microdilution method
[19] = test system: Streptococcus pyogenes; assay: Antibacterial activity against erythromycin-resistant Streptococcus pyogenes 03-680 by broth microdilution method
[20] = test system: Staphylococcus aureus; assay: Antibacterial activity against methicillin-resistant Staphylococcus aureus 01-429 by broth microdilution method

Row | SMILES | MIC [1] [µg/mL] | MIC [2] [µg/mL] | MIC [3] [µg/mL] | MIC [4] [µg/mL] | MIC [5] [µg/mL] | MIC [6] [µg/mL] | MIC [7] [µg/mL] | MIC [8] [µg/mL] | MIC [9] [µg/mL] | MIC [10] [µg/mL] | MIC [11] [µg/mL] | MIC [12] [µg/mL] | MIC [13] [µg/mL] | MIC [14] [µg/mL] | MIC [15] [µg/mL] | MIC [16] [µg/mL] | MIC [17] [µg/mL] | MIC [18] [µg/mL] | MIC [19] [µg/mL] | MIC [20] [µg/mL]
1 | C=CCO[C@@H]1C[C@@H](C)C(=O)[C@H](C)[C@H]2OC(=O)O[C@]2(C)[C@@H](CC)OC(=O)[C@H](C)[C@@H](OC(=O)COc2ccccc2)[C@H](C)[C@H]1OC1O[C@H](C)C[C@H](N(C)C)[C@H]1O (stereo not given in full) | 32 (≈ 42 µM) | 16 (≈ 21 µM) | 8 (≈ 10.5 µM) | 0.5 (≈ 0.656 µM) | 32 (≈ 42 µM) | 0.5 (≈ 0.656 µM) | 16 (≈ 21 µM) | 32 (≈ 42 µM) | 8 (≈ 10.5 µM) | 32 (≈ 42 µM) | 16 (≈ 21 µM) | 8 (≈ 10.5 µM) | 32 (≈ 42 µM) | 2 (≈ 2.62 µM) | 32 (≈ 42 µM) | 16 (≈ 21 µM) | 32 (≈ 42 µM) | 1 (≈ 1.31 µM) | 16 (≈ 21 µM) | 32 (≈ 42 µM)
2 | C=CCO[C@@H]1C[C@@H](C)C(=O)[C@H](C)[C@H]2OC(=O)O[C@]2(C)[C@@H](CC)OC(=O)[C@H](C)[C@@H](OC(=O)Cc2cccc(F)c2)[C@H](C)[C@H]1O[C@@H]1O[C@H](C)C[C@H](N(C)C)[C@H]1O | 16 (≈ 20.9 µM) | 1 (≈ 1.31 µM) | 1 (≈ 1.31 µM) | 0.125 (≈ 0.164 µM) | 2 (≈ 2.62 µM) | 0.125 (≈ 0.164 µM) | 4 (≈ 5.24 µM) | 2 (≈ 2.62 µM) | 1 (≈ 1.31 µM) | 1 (≈ 1.31 µM) | 2 (≈ 2.62 µM) | 1 (≈ 1.31 µM) | 2 (≈ 2.62 µM) | 0.125 (≈ 0.164 µM) | 32 (≈ 41.9 µM) | 1 (≈ 1.31 µM) | 8 (≈ 10.5 µM) | 0.125 (≈ 0.164 µM) | 16 (≈ 20.9 µM) | 16 (≈ 20.9 µM)
3 | C=CCO[C@@H]1C[C@@H](C)C(=O)[C@H](C)[C@H]2OC(=O)O[C@]2(C)[C@@H](CC)OC(=O)[C@H](C)[C@@H](OC(=O)Cc2ccc3c(c2)OCO3)[C@H](C)[C@H]1O[C@@H]1O[C@H](C)C[C@H](N(C)C)[C@H]1O | 32 (≈ 40.5 µM) | 0.5 (≈ 0.633 µM) | 0.5 (≈ 0.633 µM) | 0.016 (≈ 0.0203 µM) | 1 (≈ 1.27 µM) | 0.016 (≈ 0.0203 µM) | 4 (≈ 5.06 µM) | 1 (≈ 1.27 µM) | 0.5 (≈ 0.633 µM) | 1 (≈ 1.27 µM) | 2 (≈ 2.53 µM) | 0.5 (≈ 0.633 µM) | 1 (≈ 1.27 µM) | 0.062 (≈ 0.0785 µM) | 32 (≈ 40.5 µM) | 0.5 (≈ 0.633 µM) | 8 (≈ 10.1 µM) | 0.031 (≈ 0.0392 µM) | 16 (≈ 20.3 µM) | 32 (≈ 40.5 µM)
4 | C=CCO[C@@H]1C[C@@H](C)C(=O)[C@H](C)[C@H]2OC(=O)O[C@]2(C)[C@@H](CC)OC(=O)[C@H](C)[C@@H](OC(=O)Cc2ccccc2Cl)[C@H](C)[C@H]1OC1O[C@H](C)C[C@H](N(C)C)[C@H]1O (stereo not given in full) | 16 (≈ 20.5 µM) | 1 (≈ 1.28 µM) | 1 (≈ 1.28 µM) | 0.062 (≈ 0.0795 µM) | 4 (≈ 5.13 µM) | 0.062 (≈ 0.0795 µM) | 4 (≈ 5.13 µM) | 4 (≈ 5.13 µM) | 1 (≈ 1.28 µM) | 4 (≈ 5.13 µM) | 2 (≈ 2.56 µM) | 1 (≈ 1.28 µM) | 8 (≈ 10.3 µM) | 0.25 (≈ 0.32 µM) | 32 (≈ 41 µM) | 1 (≈ 1.28 µM) | 8 (≈ 10.3 µM) | 0.125 (≈ 0.16 µM) | 16 (≈ 20.5 µM) | 16 (≈ 20.5 µM)
5 | C=CCO[C@@H]1C[C@@H](C)C(=O)[C@H](C)[C@H]2OC(=O)O[C@]2(C)[C@@H](CC)OC(=O)[C@H](C)[C@@H](OC(=O)Cc2cccnc2)[C@H](C)[C@H]1O[C@@H]1O[C@H](C)C[C@H](N(C)C)[C@H]1O | 32 (≈ 42.8 µM) | 1 (≈ 1.34 µM) | 0.5 (≈ 0.669 µM) | 0.125 (≈ 0.167 µM) | 8 (≈ 10.7 µM) | 0.125 (≈ 0.167 µM) | 2 (≈ 2.68 µM) | 2 (≈ 2.68 µM) | 0.5 (≈ 0.669 µM) | 2 (≈ 2.68 µM) | 2 (≈ 2.68 µM) | 0.5 (≈ 0.669 µM) | 32 (≈ 42.8 µM) | 0.25 (≈ 0.335 µM) | 32 (≈ 42.8 µM) | 1 (≈ 1.34 µM) | 2 (≈ 2.68 µM) | 0.125 (≈ 0.167 µM) | 16 (≈ 21.4 µM) | 32 (≈ 42.8 µM)
6 | C=CCO[C@@H]1C[C@@H](C)C(=O)[C@H](C)[C@H]2OC(=O)O[C@]2(C)[C@@H](CC)OC(=O)[C@H](C)[C@@H](OC(=O)Cc2c[nH]c3ccccc23)[C@H](C)C1O[C@@H]1O[C@H](C)C[C@H](N(C)C)[C@H]1O (stereo not given in full) | 16 (≈ 20.4 µM) | 8 (≈ 10.2 µM) | 4 (≈ 5.1 µM) | 0.5 (≈ 0.637 µM) | 16 (≈ 20.4 µM) | 0.5 (≈ 0.637 µM) | 16 (≈ 20.4 µM) | 16 (≈ 20.4 µM) | 4 (≈ 5.1 µM) | 32 (≈ 40.8 µM) | 32 (≈ 40.8 µM) | 4 (≈ 5.1 µM) | 32 (≈ 40.8 µM) | 2 (≈ 2.55 µM) | 32 (≈ 40.8 µM) | 8 (≈ 10.2 µM) | 32 (≈ 40.8 µM) | 0.5 (≈ 0.637 µM) | 16 (≈ 20.4 µM) | 16 (≈ 20.4 µM)
7 | C=CCO[C@@H]1C[C@@H](C)C(=O)[C@H](C)[C@H]2OC(=O)O[C@]2(C)[C@@H](CC)OC(=O)[C@H](C)[C@@H](OC(=O)Cc2ccc(Cl)cc2)[C@H](C)[C@H]1OC1O[C@H](C)C[C@H](N(C)C)[C@H]1O (stereo not given in full) | 16 (≈ 20.5 µM) | 4 (≈ 5.13 µM) | 2 (≈ 2.56 µM) | 0.25 (≈ 0.32 µM) | 16 (≈ 20.5 µM) | 0.5 (≈ 0.641 µM) | 8 (≈ 10.3 µM) | 8 (≈ 10.3 µM) | 2 (≈ 2.56 µM) | 16 (≈ 20.5 µM) | 8 (≈ 10.3 µM) | 2 (≈ 2.56 µM) | 16 (≈ 20.5 µM) | 1 (≈ 1.28 µM) | 32 (≈ 41 µM) | 4 (≈ 5.13 µM) | 16 (≈ 20.5 µM) | 0.5 (≈ 0.641 µM) | 8 (≈ 10.3 µM) | 16 (≈ 20.5 µM)
8 | C=CCO[C@@H]1C[C@@H](C)C(=O)[C@H](C)[C@H]2OC(=O)O[C@]2(C)[C@@H](CC)OC(=O)[C@H](C)[C@@H](OC(=O)CCc2c[nH]c3ccccc23)[C@H](C)[C@H]1O[C@@H]1O[C@H](C)C[C@H](N(C)C)[C@H]1O | 32 (≈ 40.1 µM) | 32 (≈ 40.1 µM) | 32 (≈ 40.1 µM) | 1 (≈ 1.25 µM) | 32 (≈ 40.1 µM) | 1 (≈ 1.25 µM) | 32 (≈ 40.1 µM) | 32 (≈ 40.1 µM) | 32 (≈ 40.1 µM) | 32 (≈ 40.1 µM) | 32 (≈ 40.1 µM) | 32 (≈ 40.1 µM) | 32 (≈ 40.1 µM) | 4 (≈ 5.01 µM) | 32 (≈ 40.1 µM) | 32 (≈ 40.1 µM) | 32 (≈ 40.1 µM) | 1 (≈ 1.25 µM) | 32 (≈ 40.1 µM) | 32 (≈ 40.1 µM)
9 | CC[C@H]1OC(=O)[C@H](C)[C@@H](O[C@H]2C[C@@](C)(OC)[C@@H](O)[C@H](C)O2)[C@H](C)[C@@H](O[C@@H]2O[C@H](C)C[C@H](N(C)C)[C@H]2O)[C@](C)(OC)C[C@@H](C)C(=O)[C@H](C)[C@@H](O)[C@]1(C)O [CLARITHROMYCIN] | 256 (≈ 342 µM) | 0.25 (≈ 0.334 µM) | 0.125 (≈ 0.167 µM) | 0.062 (≈ 0.0829 µM) | 256 (≈ 342 µM) | 0.062 (≈ 0.0829 µM) | 32 (≈ 42.8 µM) | 0.5 (≈ 0.668 µM) | 0.125 (≈ 0.167 µM) | 256 (≈ 342 µM) | 256 (≈ 342 µM) | 0.125 (≈ 0.167 µM) | 256 (≈ 342 µM) | 0.25 (≈ 0.334 µM) | 256 (≈ 342 µM) | 0.25 (≈ 0.334 µM) | 128 (≈ 171 µM) | 0.125 (≈ 0.167 µM) | 256 (≈ 342 µM) | 256 (≈ 342 µM)

Source: ChEMBL document CHEMBL1148023, “Synthesis and antibacterial activity of derivatives of 6-O-allylic acylides” (2007)
